Measured values from the supplement of paper PMC11451515.

Test system: SEM cells
Assay: cell viability relative to DMSO control; higher = less cytotoxic
Conditions: 48 h
In short: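 Viability values are per-plate percentages of DMSO wells, with background from cell-free wells. Library compounds in DMSO were pin-dosed, in an 11-point threefold series from 47 μM to 0.79 nM, onto NOMO1 or SEM (500 cells/well) or P12-Ichikawa (1000 cells/well) leukemia cells in 1536-well plates (5 μl). Those cells had been adapted for at least four passages in each medium, and CellTiter-Glo One luminescence was read after 48 h at 37°C.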

[1] = HPLM + 10% dialyzed FBS, 0.000781 µM
[2] = HPLM + 10% dialyzed FBS, 0.00234 µM
[3] = HPLM + 10% dialyzed FBS, 0.00702 µM
[4] = HPLM + 10% dialyzed FBS, 0.0211 µM
[5] = HPLM + 10% dialyzed FBS, 0.0632 µM
[6] = HPLM + 10% dialyzed FBS, 0.19 µM
[7] = HPLM + 10% dialyzed FBS, 0.569 µM
[8] = HPLM + 10% dialyzed FBS, 1.71 µM
[9] = HPLM + 10% dialyzed FBS, 5.12 µM
[10] = HPLM + 10% dialyzed FBS, 15.4 µM
[11] = HPLM + 10% dialyzed FBS, 46.1 µM
[12] = RPMI 5 mM glucose + 10% FBS, 0.000781 µM
[13] = RPMI 5 mM glucose + 10% FBS, 0.00234 µM
[14] = RPMI 5 mM glucose + 10% FBS, 0.00702 µM
[15] = RPMI 5 mM glucose + 10% FBS, 0.0211 µM
[16] = RPMI 5 mM glucose + 10% FBS, 0.0632 µM
[17] = RPMI 5 mM glucose + 10% FBS, 0.19 µM
[18] = RPMI 5 mM glucose + 10% FBS, 0.569 µM
[19] = RPMI 5 mM glucose + 10% FBS, 1.71 µM
[20] = RPMI 5 mM glucose + 10% FBS, 5.12 µM
[21] = RPMI 5 mM glucose + 10% FBS, 15.4 µM
[22] = RPMI 5 mM glucose + 10% FBS, 46.1 µM
[23] = RPMI 5 mM glucose + 10% dialyzed FBS, 0.000781 µM
[24] = RPMI 5 mM glucose + 10% dialyzed FBS, 0.00234 µM
[25] = RPMI 5 mM glucose + 10% dialyzed FBS, 0.00702 µM
[26] = RPMI 5 mM glucose + 10% dialyzed FBS, 0.0211 µM
[27] = RPMI 5 mM glucose + 10% dialyzed FBS, 0.0632 µM
[28] = RPMI 5 mM glucose + 10% dialyzed FBS, 0.19 µM
[29] = RPMI 5 mM glucose + 10% dialyzed FBS, 0.569 µM
[30] = RPMI 5 mM glucose + 10% dialyzed FBS, 1.71 µM
[31] = RPMI 5 mM glucose + 10% dialyzed FBS, 5.12 µM
[32] = RPMI 5 mM glucose + 10% dialyzed FBS, 15.4 µM
[33] = RPMI 5 mM glucose + 10% dialyzed FBS, 46.1 µM

## O=C(Nc1c[nH]nc1-c1nc2cc(CN3CCOCC3)ccc2[nH]1)NC1CC1
[1]
  cell viability: 92.3%
[2]
  cell viability: 85.9%
[3]
  cell viability: 103%
[4]
  cell viability: 87.9%
[5]
  cell viability: 40.6%
[6]
  cell viability: 45.9%
[7]
  cell viability: 26%
[8]
  cell viability: 16%
[9]
  cell viability: 6.08%
[10]
  cell viability: 3.77%
[11]
  cell viability: 2.78%
[12]
  cell viability: 96.7%
[13]
  cell viability: 90%
[14]
  cell viability: 107%
[15]
  cell viability: 101%
[16]
  cell viability: 22.7%
[17]
  cell viability: 22.5%
[18]
  cell viability: 17.1%
[19]
  cell viability: 10.4%
[20]
  cell viability: 3.98%
[21]
  cell viability: 2.18%
[22]
  cell viability: 2.92%
[23]
  cell viability: 95.1%
[24]
  cell viability: 93.5%
[25]
  cell viability: 110%
[26]
  cell viability: 77.2%
[27]
  cell viability: 26.9%
[28]
  cell viability: 26.8%
[29]
  cell viability: 22%
[30]
  cell viability: 11.7%
[31]
  cell viability: 4.09%
[32]
  cell viability: 2.03%
[33]
  cell viability: 3.29%

## CC[C@]12CC[C@H]3[C@@H](CCC/4=C/C(=O)CC[C@H]34)[C@@H]1CC[C@@]2(O)C#C
[1]
  cell viability: 93.7%
[2]
  cell viability: 79.6%
[3]
  cell viability: 97.7%
[4]
  cell viability: 92.4%
[5]
  cell viability: 103%
[6]
  cell viability: 83.1%
[7]
  cell viability: 87.8%
[8]
  cell viability: 77.9%
[9]
  cell viability: 83.6%
[10]
  cell viability: 80.9%
[11]
  cell viability: 82.8%
[12]
  cell viability: 85.7%
[13]
  cell viability: 102%
[14]
  cell viability: 102%
[15]
  cell viability: 109%
[16]
  cell viability: 108%
[17]
  cell viability: 85.2%
[18]
  cell viability: 86.9%
[19]
  cell viability: 86.5%
[20]
  cell viability: 97.9%
[21]
  cell viability: 87.4%
[22]
  cell viability: 96.5%
[23]
  cell viability: 103%
[24]
  cell viability: 90.3%
[25]
  cell viability: 81.9%
[26]
  cell viability: 102%
[27]
  cell viability: 101%
[28]
  cell viability: 96.8%
[29]
  cell viability: 101%
[30]
  cell viability: 114%
[31]
  cell viability: 94.8%
[32]
  cell viability: 111%
[33]
  cell viability: 105%

## CCN(CC)CCOc1ccc(Cc2ccccc2)cc1
[1]
  cell viability: 102%
[2]
  cell viability: 101%
[3]
  cell viability: 110%
[4]
  cell viability: 88.4%
[5]
  cell viability: 92.2%
[6]
  cell viability: 102%
[7]
  cell viability: 104%
[8]
  cell viability: 89.4%
[9]
  cell viability: 87.1%
[10]
  cell viability: 75.9%
[11]
  cell viability: 46.6%
[12]
  cell viability: 107%
[13]
  cell viability: 98%
[14]
  cell viability: 98.9%
[15]
  cell viability: 102%
[16]
  cell viability: 95.5%
[17]
  cell viability: 102%
[18]
  cell viability: 91.9%
[19]
  cell viability: 88.4%
[20]
  cell viability: 44.9%
[21]
  cell viability: 11.8%
[22]
  cell viability: 9.79%
[23]
  cell viability: 108%
[24]
  cell viability: 102%
[25]
  cell viability: 101%
[26]
  cell viability: 113%
[27]
  cell viability: 93.8%
[28]
  cell viability: 110%
[29]
  cell viability: 104%
[30]
  cell viability: 101%
[31]
  cell viability: 85.1%
[32]
  cell viability: 19.4%
[33]
  cell viability: 16.9%

## COc1cc(Nc2c(C#N)cnc3cc(OCCCN4CCN(C)CC4)c(OC)cc23)c(Cl)cc1Cl
[1]
  cell viability: 87.1%
[2]
  cell viability: 96.8%
[3]
  cell viability: 114%
[4]
  cell viability: 113%
[5]
  cell viability: 111%
[6]
  cell viability: 95%
[7]
  cell viability: 109%
[8]
  cell viability: 54.6%
[9]
  cell viability: 13%
[10]
  cell viability: 5.77%
[11]
  cell viability: 6.12%
[12]
  cell viability: 72.5%
[13]
  cell viability: 68.2%
[14]
  cell viability: 75.7%
[15]
  cell viability: 74.8%
[16]
  cell viability: 73.1%
[17]
  cell viability: 84.7%
[18]
  cell viability: 68.1%
[19]
  cell viability: 44%
[20]
  cell viability: 7.02%
[21]
  cell viability: 3.9%
[22]
  cell viability: 4.3%
[23]
  cell viability: 95.9%
[24]
  cell viability: 89.4%
[25]
  cell viability: 103%
[26]
  cell viability: 105%
[27]
  cell viability: 96.1%
[28]
  cell viability: 98%
[29]
  cell viability: 100%
[30]
  cell viability: 62.1%
[31]
  cell viability: 17.5%
[32]
  cell viability: 5.92%
[33]
  cell viability: 5.77%

## N#C/C(=C\c1ccc(O)c(O)c1)C(=O)NCc1ccccc1
[1]
  cell viability: 103%
[2]
  cell viability: 103%
[3]
  cell viability: 109%
[4]
  cell viability: 113%
[5]
  cell viability: 113%
[6]
  cell viability: 102%
[7]
  cell viability: 93.2%
[8]
  cell viability: 104%
[9]
  cell viability: 105%
[10]
  cell viability: 72.8%
[11]
  cell viability: 37.2%
[12]
  cell viability: 103%
[13]
  cell viability: 100%
[14]
  cell viability: 101%
[15]
  cell viability: 105%
[16]
  cell viability: 114%
[17]
  cell viability: 111%
[18]
  cell viability: 107%
[19]
  cell viability: 112%
[20]
  cell viability: 96.4%
[21]
  cell viability: 80.2%
[22]
  cell viability: 9.69%
[23]
  cell viability: 111%
[24]
  cell viability: 107%
[25]
  cell viability: 96.4%
[26]
  cell viability: 106%
[27]
  cell viability: 114%
[28]
  cell viability: 102%
[29]
  cell viability: 104%
[30]
  cell viability: 101%
[31]
  cell viability: 101%
[32]
  cell viability: 69%
[33]
  cell viability: 26.4%

## O=C([O-])C[C@H](O)C[C@H](O)/C=C/c1c(C2CC2)nc2ccccc2c1-c1ccc(F)cc1
[1]
  cell viability: 82.3%
[2]
  cell viability: 73.1%
[3]
  cell viability: 97.5%
[4]
  cell viability: 102%
[5]
  cell viability: 89.1%
[6]
  cell viability: 90%
[7]
  cell viability: 86.1%
[8]
  cell viability: 83.9%
[9]
  cell viability: 87.4%
[10]
  cell viability: 70%
[11]
  cell viability: 18.9%
[12]
  cell viability: 99.4%
[13]
  cell viability: 85.2%
[14]
  cell viability: 99.1%
[15]
  cell viability: 97.9%
[16]
  cell viability: 108%
[17]
  cell viability: 99.4%
[18]
  cell viability: 96.7%
[19]
  cell viability: 109%
[20]
  cell viability: 81.6%
[21]
  cell viability: 43.7%
[22]
  cell viability: 10.7%
[23]
  cell viability: 99.1%
[24]
  cell viability: 81%
[25]
  cell viability: 91.7%
[26]
  cell viability: 95.9%
[27]
  cell viability: 112%
[28]
  cell viability: 85%
[29]
  cell viability: 79.6%
[30]
  cell viability: 97.9%
[31]
  cell viability: 94.5%
[32]
  cell viability: 69.1%
[33]
  cell viability: 13.6%

## NC(=O)[C@H]1CCS[C@@H]2C[C@]3(CCCN3C(=O)Cc3ccc(NC(=O)COc4ccc(Cl)cc4Cl)cc3)C(=O)N12
[1]
  cell viability: 96.1%
[2]
  cell viability: 101%
[3]
  cell viability: 94%
[4]
  cell viability: 107%
[5]
  cell viability: 104%
[6]
  cell viability: 103%
[7]
  cell viability: 97.7%
[8]
  cell viability: 61.4%
[9]
  cell viability: 38%
[10]
  cell viability: 28.2%
[11]
  cell viability: 31.5%
[12]
  cell viability: 105%
[13]
  cell viability: 106%
[14]
  cell viability: 112%
[15]
  cell viability: 107%
[16]
  cell viability: 121%
[17]
  cell viability: 103%
[18]
  cell viability: 85.7%
[19]
  cell viability: 18.4%
[20]
  cell viability: 16.2%
[21]
  cell viability: 19.6%
[22]
  cell viability: 10.2%
[23]
  cell viability: 115%
[24]
  cell viability: 102%
[25]
  cell viability: 123%
[26]
  cell viability: 120%
[27]
  cell viability: 113%
[28]
  cell viability: 114%
[29]
  cell viability: 117%
[30]
  cell viability: 66.6%
[31]
  cell viability: 35.1%
[32]
  cell viability: 20.8%
[33]
  cell viability: 19.9%
